Legend:
[1] = Antiproliferative activity against human U-87 MG cells assessed as inhibitionof cell growth incubated for 24 to 72 hrs by MTT assay; format: functional, cell-based, U-87MG ATCC
[2] = Inhibition of cell migration of patient derived glioblastoma T78 spheroid cell culture treated at 10 uM for 24 hrs by propidium iodide staining method relative to control; format: functional; conditions: Homo sapiens
[3] = Inhibition of cell migration of patient derived glioblastoma T86 spheroid cell culture treated at 10 uM for 24 hrs by propidium iodide staining method relative to control; format: functional; conditions: Homo sapiens
[4] = Cytotoxicity against patient derived glioblastoma T111 cells; format: functional; conditions: Homo sapiens, read-out: LC50 (the source's name)
[5] = Cytotoxicity against patient derived glioblastoma T78 cells; format: functional; conditions: Homo sapiens, read-out: LC50 (the source's name)
[6] = Cytotoxicity against patient derived glioblastoma T86 cells; format: functional; conditions: Homo sapiens, read-out: LC50 (the source's name)
U-251 [7] = test: Cytotoxicity against human U-251 cells; format: functional, cell-based
[8] = Cytotoxicity against U87MG Human EGFR vIII cells; format: functional, cell-based
U-251 [9] = test: Cytotoxicity against human U-251 cells assessed cell growth inhibition incubated for 48 hrs by CCK8 assay; format: functional, cell-based; conditions: U-251, 48 h
[10] = Cytotoxicity against human 091214 cells assessed cell growth inhibition incubated for 48 hrs by CCK8 assay; format: functional, cell-based; conditions: Homo sapiens, 091214, 48 h
[11] = Water solubility of the compound; format: physicochemical
[12] = Cytotoxicity against patient derived xenografted D456 cells; format: functional, cell-based; conditions: Homo sapiens
Astrocyte = test: Cytotoxicity against NHA cells; format: functional, cell-based; conditions: Homo sapiens
LN-229 = test: Cytotoxicity against human LN-229 cells assessed as cell viability measured after 48 hrs by countess-II FL Hemocytometer method; format: functional, cell-based; conditions: LN-229, 48 h
SNB-19 = test: Cytotoxicity against human SNB-19 cells assessed as cell viability measured after 48 hrs by countess-II FL Hemocytometer method; format: functional, cell-based; conditions: SNB-19, 48 h
U-251 [13] = test: Cytotoxicity against human U-251MG cells assessed as cell viability; format: functional, cell-based
T98G [14] = test: Cytotoxicity against human T98G cells assessed as cell viability; format: functional, cell-based
[15] = Cytotoxicity against human U-87G cells assessed as cell viability; format: functional, cell-based; conditions: U87G
Translocator protein = Translocator protein (Homo sapiens, UniProt P30536); test: Binding affinity to TSPO (unknown origin)
U-251 [16] = test: Cytotoxicity against human U251N cells incubated for 24 to 72 hrs by fluorescence microscopic analysis; format: functional, cell-based
U-251 [17] = test: Inhibition of cell migration of human U251N cells relative to control; format: functional
DBTRG-05MG = test: Cytotoxicity against human DBTRG cells; format: functional, cell-based
[18] = Cytotoxicity against human U-87 MG cells; format: functional, cell-based, U-87MG ATCC
C6 = test: Anticancer activity against rat C6 cells; format: functional, cell-based
[19] = Cytotoxicity against human glial cells; format: toxicity, cell-based, Glial cell
[20] = Growth inhibition of human U373 cells; format: functional; conditions: U373 MG
Hs 683 = test: Growth inhibition of human Hs 683 cells; format: functional
[21] = Plasma stability in mouse relative to control; format: ADME, cell-free
[22] = Plasma stability in monkey relative to control; format: ADME, cell-free, Macaca mulatta; conditions: rhesus monkey
[23] = Plasma stability in human relative to control; format: ADME, cell-free
[24] = Antiproliferative activity against human U-343MG cells assessed as inhibition of cell growth incubated for 72 hrs by MTS assay; format: functional, cell-based
[25] = Antiproliferative activity against human ANGM-CSS cells assessed as inhibition of cell growth incubated for 72 hrs by MTS assay; format: functional, cell-based
U-87 MG = test: Cytotoxicity against human U87 cells; format: functional, U-87MG ATCC
T98G [26] = test: Cytotoxicity against human T98G cells; format: functional
[27] = Antiproliferative activity against human U-87 MG cells incubated for 72 hrs by MTT assay; format: functional, cell-based, U-87MG ATCC

Translocator protein, sequence (P30536 whole entry): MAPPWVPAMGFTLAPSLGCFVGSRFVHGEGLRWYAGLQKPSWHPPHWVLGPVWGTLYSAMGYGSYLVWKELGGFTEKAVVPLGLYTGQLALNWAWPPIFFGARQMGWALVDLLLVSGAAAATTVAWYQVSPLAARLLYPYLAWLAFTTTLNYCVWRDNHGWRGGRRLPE

With `C[C@@H]1C2CCCC3CC[C@]4(C)OO[C@]32[C@H](O[C@@H]1OCCCN=C=S)O4` (stereo partly drawn) as the compound, how does the IC50 [1] read?
Its IC50 is 7.41 µM.

Which inhibition at 10 µM [2] does the source give for `CCn1c(-c2nonc2N)nc2cncc(CNC3CCNCC3)c21` here?
The inhibition at 10 µM was 37.8%.

What about the inhibition at 10 µM [3] of the same compound?
The inhibition at 10 µM was 60.4%.

What about the CC50 [4] of the same compound?
Its CC50 is 112 µM.

And the CC50 [5]?
The CC50 was 115 µM.

And the CC50 [6]?
Its CC50 is 456 µM.

With `CC(C)(C)OC(=O)N1CC[C@@]2(C(=O)Nc3ccccc32)[C@@H]1c1cccc(Nc2ccc(CO)c(S(C)(=O)=O)c2)c1` as the compound, how does the IC50 (U-251 [7]) read?
The IC50 was 2.23 µM.

What about the IC50 [8] of the same compound?
Its IC50 is 1.78 µM.

For `C[C@@H]1O[C@@H](O[C@H]2CC[C@H](O[C@H]3[C@H](O)C[C@H](c4ccc5c(c4O)C(=O)c4ccc(C[C@](C)(CC(=O)O)O[C@H]6CC[C@H](O[C@H]7CCC(=O)[C@H](C)O7)[C@H](C)O6)c(O)c4C5=O)O[C@@H]3C)O[C@H]2C)CCC1=O` [GRINCAMYCIN B], which IC50 (U-251 [9]) is on record?
The IC50 was 2.04 µM.

What about the IC50 [10] of the same compound?
The IC50 was 3.11 µM.

For `CCOC(=O)[C@H](CCC(=O)C=[N+]=N)NC(=O)OC(C)OC(=O)C(C)(C)C` (stereo partly drawn), which solubility [11] is on record?
The solubility was over 25 mg/mL.

With `O=C1Nc2ccccc2C12CCN[C@@H]2c1ccccc1` (stereo partly drawn) as the compound, how does the IC50 [12] read?
The IC50 was 41.1 µM.

And the IC50 (Astrocyte)?
Its IC50 is 101 µM.

For `CC(C)(C)[Si](O[C@H]1[C@H](O)C[C@](O)(CO)C[C@H]1O[Si](c1ccccc1)(c1ccccc1)C(C)(C)C)(c1ccccc1)c1ccccc1`, which IC50 (LN-229) is on record?
Its IC50 is 10.7 µM.

What about the IC50 (SNB-19) of the same compound?
The IC50 was 28.2 µM.

What does the source list for `C[C@H]1O[C@@H](O[C@H]2CC[C@]3(C=O)[C@H]4CC[C@]5(C)[C@@H](C6CCC(=O)OC6)CC[C@]5(O)[C@@H]4CC[C@]3(O)C2)[C@H](O)[C@@H](O)[C@@H]1O` (stereo partly drawn)?
IC50 (U-251 [13]): 70 µM; IC50 (T98G [14]): 50 µM; IC50 [15]: 40 µM

Which Ki (Translocator protein) does the source give for `Cc1ccc(CN(C)C(=O)c2nc(-c3ccccc3Cl)c3ccccc3n2)cc1` here?
Its Ki is 0.00399 µM.

Which results are given for `COc1cc(NC(C)CCCNC(=O)CCCC(=O)NO)c2ncccc2c1` (stereo not drawn)?
IC50 (U-251 [16]): 10 µM; inhibition (INH) (U-251 [17]): 42%

With `O=C1c2cc(-c3cccnc3)ncc2C(=O)c2c1c(-c1ccccn1)nn2-c1ccc(F)cc1F` as the compound, how does the IC50 (U-251 [7]) read?
The IC50 was 2.5 µM.

What about the IC50 (DBTRG-05MG) of the same compound?
The IC50 was 2.5 µM.

And the IC50 [18]?
Its IC50 is 2.5 µM.

Which results are given for `CCOC(=O)/C=C/c1ccc(/C=C/c2ccc(O)c(O)c2)cc1`?
IC50 (C6): 3.9 µM; IC50 [19]: 86 µM

For `O=C1CC(c2ccc(-c3cc[nH]n3)s2)c2cc(N3CCNC3=O)ccc2N1` (stereo not drawn), which IC50 [12] is on record?
Its IC50 is 1.59 µM.

What about the IC50 (Astrocyte) of the same compound?
The IC50 was 4.11 µM.

Which IC50 [12] does the source give for `O=C(Nc1ccc(Cl)c(C(F)(F)F)c1)c1ccc(Cl)cc1` here?
Its IC50 is 2.96 µM.

What about the IC50 (Astrocyte) of the same compound?
The IC50 was 14.2 µM.

Which GI50 [20] does the source give for `O=C(c1ccccc1)c1[nH]c2[nH]cnc(=O)c2c1-c1ccccc1` here?
The GI50 was at most 0.01 µM.

What about the GI50 (Hs 683) of the same compound?
Its GI50 is 0.01 µM.

What does the source list for `CC(C)OC(=O)[C@H](CCC(=O)C=[N+]=[N-])NC(=O)[C@@H](N)Cc1c[nH]c2ccccc12`?
Stability [21]: 0%; Stability [22]: 10%; Stability [23]: 61%

Which results are given for `O=C1Nc2ccccc2C1Cc1ccc2cc[nH]c2c1` (stereo not drawn)?
IC50 [12]: 21.3 µM; IC50 (Astrocyte): 24.7 µM

For `O=C1Nc2ccc(NC(=O)[C@H](NC(=O)c3cccn(Cc4ccc(F)c(F)c4)c3=O)c3ccccc3)cc2/C1=C/c1cnc[nH]1`, which IC50 [24] is on record?
Its IC50 is 0.0497 µM.

What about the IC50 [25] of the same compound?
The IC50 was 0.044 µM.

For `CCOC(=O)[C@H](CCC(=O)C=[N+]=[N-])NC(=O)[C@@H](N)Cc1c[nH]c2ccccc12`, which Stability [21] is on record?
The Stability was 0%.

What about the Stability [22] of the same compound?
Its Stability is 4%.

And the Stability [23]?
Its Stability is 12%.

What does the source list for `NC(=O)CC(c1ccc(NC(=O)c2cccnc2)cc1)c1cccc2[nH]ccc12` (stereo not drawn)?
IC50 [12]: 8.65 µM; IC50 (Astrocyte): 27.3 µM

Which GI50 (U-87 MG) does the source give for `O=C(NO)C(c1ccccc1)c1c(-c2ccc3ccccc3c2)[nH]c2ccccc12` (stereo not drawn) here?
The GI50 was 21.3 µM.

What about the GI50 (T98G [26]) of the same compound?
The GI50 was 1.9 µM.

What does the source list for `O=C(COc1ccc2c(=O)c(-c3ccccc3)coc2c1)N=c1[nH]c2ccccc2[nH]1`?
IC50 [12]: 6.58 µM; IC50 (Astrocyte): 4.77 µM

Which IC50 [27] does the source give for `O=C(NO)c1ccc(Cn2c(=O)n(CCc3ccccc3)c(=O)c3ccccc32)cc1` here?
The IC50 was 1.56 µM.

Which IC50 (C6) does the source give for `COC(=O)/C=C/c1ccc(/C=C/c2ccc(O)c(O)c2)cc1` here?
The IC50 was 5.4 µM.

And the IC50 [19]?
The IC50 was 142 µM.

For `Cc1ccc(C(C(=O)NO)c2c(-c3ccc4ccccc4c3)[nH]c3ccccc23)cc1C` (stereo not drawn), which GI50 (U-87 MG) is on record?
Its GI50 is 6.7 µM.

And the GI50 (T98G [26])?
Its GI50 is 7.5 µM.
